From patent US20050209157A1, “Short bioactive peptides and methods for their use” (priority 2001, published 2005)
No end group written: not given here.

Columns and labels:
[1] = system: human red blood cells (RBC); assay: in vitro; type: cell-based; conditions: hemolytic assay, concentration at 50% hemolysis, 1 hour at 37° C.
WI38 = conditions: MTT, 24 hours with peptide; normal fibroblast line
in vitro = conditions: human, WI38 normal lung fibroblast cells, LD50 WI38, WI38 normal lung fibroblast line, MTT, 24 hours with peptide
H1299 = assay: Anti-cancer assay, MTT, LD50; type: cell-based; conditions: 24 hours with peptide, lung large cell carcinoma
Text: (§1) Numbers are LD50 values (μg/mL).

PC3 = assay: Anti-cancer assay, MTT, LD50; type: cell-based; conditions: 24 hours with peptide, prostate adenocarcinoma
Text: as §1

MCF7 = assay: Anti-cancer assay, MTT, LD50; type: cell-based; conditions: MCF7 breast adenocarcinoma line, MTT, 24 hours with peptide
Text: as §1

HeLaS3 = assay: Anti-cancer assay, MTT, LD50; type: cell-based; conditions: 24 hours with peptide, cervical carcinoma
Text: as §1

SW480 = assay: Anti-cancer assay, MTT, LD50; type: cell-based; conditions: SW480 colon adenocarcinoma line, 24 hours with peptide
Text: as §1

BMKC = assay: Anti-cancer assay, MTT, LD50; type: cell-based; conditions: BMKC cloned melanoma line, 24 hours with peptide
Text: as §1

[2] = system: Staphylococcus aureus ATCC 6538; assay: Antimicrobial assay I, MIC by OD measurement; type: cell-based; conditions: 37° C. for 24 hours, absorbance 620 nm
[3] = system: Pseudomonas aeruginosa ATCC 9027; assay: Antimicrobial assay I, MIC by OD measurement; type: cell-based; conditions: 37° C. for 24 hours, absorbance 620 nm
[4] = system: yeast (Saccharomyces cerevisiae); assay: Antimicrobial assay I, yeast assay in RPMI 1640; type: cell-based; conditions: RPMI 1640 media

Substance | LD50 [1] | WI38 LD50 (WI38) [µg/mL] | CC50 at 24 h (in vitro) [mg/L] | H1299 LD50 (H1299) | PC3 LD50 (PC3) | LD50 MCF7 (MCF7) | HeLaS3 LD50 (HeLaS3) | LD50 SW480 (SW480) | LD50 BMKC (BMKC) [µg/mL] | staph6538 (MIC) [2] | paerug9027 (MIC) [3] [mg/L] | yeast (MIC or MFC) [4]
FAKKLAKKLAKAAL-NH2 [P76, FAKKLAKKLAKAAL-NH2] | > (> indicates greater than 1000) | 445 | 445 | 860 µg/mL | 675 µg/mL | 970 µg/mL | 380 µg/mL | 400 µg/mL | 750 | 10 mg/L | 100 | 200 mg/L
FALALKLKKL-NH2 [P181] | > (> indicates greater than 1000) | 500 | 500 | > (> indicates greater than 1000) | > (> indicates greater than 1000) | 550 µg/mL | > (> indicates greater than 1000) | 870 µg/mL | 830 | 100 mg/L | 200 | 100 mg/L
FAKLLAKKLL-NH2 [P57] | > (> indicates greater than 1000) | 900 | 900 | > (> indicates greater than 1000) | > (> indicates greater than 1000) | > (> indicates greater than 1000) | 830 µg/mL | 740 µg/mL | 740 | 100 mg/L | 200 | 200 mg/L
FAKLAKKALAKLL-NH2 [P148] | > (> indicates greater than 1000) | 380 | 380 | 660 µg/mL | > (> indicates greater than 1000) | 315 µg/mL | > (> indicates greater than 1000) | > (> indicates greater than 1000) | 330 | > (> indicates greater than 200 μg/mL) | 200 | 200 mg/L
FAKLLAKLAKKSL-NH2 [P127] | > (> indicates greater than 1000) | 760 | 760 | 770 µg/mL | > (> indicates greater than 1000) | 440 µg/mL | 610 µg/mL | 400 µg/mL | 535 | 100 mg/L | 25 | 100 mg/L
FAKLLAKLAKAKA-NH2 [P95] | > (> indicates greater than 1000) | 250 | 250 | > (> indicates greater than 1000) | > (> indicates greater than 1000) | > (> indicates greater than 1000) | > (> indicates greater than 1000) | > (> indicates greater than 1000) | 820 | 100 mg/L | 200 | > (> indicates greater than 200 μg/mL)
FALALKLAKKL-NH2 [P178] | > (> indicates greater than 1000) | 405 | 405 | > (> indicates greater than 1000) | > (> indicates greater than 1000) | 770 µg/mL | > (> indicates greater than 1000) | > (> indicates greater than 1000) | 640 | 200 mg/L | 100 | > (> indicates greater than 200 μg/mL)
